# Reference: patent publication US20260209200A1, “SALTS OF A DIHYDROOROTATE DEHYDROGENASE (DHOD) INHIBITOR” (priority 2022, published 2026)
# Key:
# in vivo [1] = details: dog; for AUC0-∞ / AUCExtr / AUCinf/D / AUClast / Cmax / F, bioavailability (BA) in dogs / MRT0-∞ / T1/2 / Tmax: 4 mg/kg
# Protocol: (§1) Suspensions were stirred continuously prior to dose.
# A total of 6 male beagle dogs were used (n=3). 6 male dogs assigned to the study were divided into 2 periods with 6 dogs per period and two dosing cycles separated by a 7-day washout period. The diet was provided ad libitum throughout the in-life portion of the study, except for the fasting prior to dosing through 4 hours post dose. Drinking water was available daily ad libitum to all animals. Formulated PP-001 salts were administered to male beagle dogs by oral administration at 4 mg/kg with dosed volume at 2 mL/kg.
# (§2) Plasma samples were collected via the jugular vein cannulation into EDTA-K3 tubes at 0.25, 0.5, 1, 2, 4, 8, and 24 hours post-dose administration. For analytical batch of single oral administration, plasma concentrations of salts of PP-001 were determined using LC-MS/MS with a lower limit of quantitation of 10 ng/mL.
# (§3) The pharmacokinetic parameters of PP-001 salts were determined by non-compartmental analysis using WinNonlin Version 8.0 (Pharsight, Mountain View, CA). The area under the curve from the time of dosing to the last measurable concentration, AUC0-t, was calculated by the linear trapezoidal rule. The area under the concentration-time curve extrapolated to infinity, AUCinf, was calculated using a regression of the natural logarithm of the concentration values versus sampling time of the terminal slope (Lambda Z, k). This value is also used to calculate half-life (T1/2) as follows:
# (§4) The bioavailability was calculated as follows:
# (§5) [formula] • wherein PO is an oral administration and IV is an intravenous injection.
# [2] = Thermodynamic (equilibrium) solubility of PP-001 salts in FaSSIF; assay type: physicochemical; details: 3 mL FaSSIF, 37° C.; for Final pH: pH tested after 24 hours; for Appearance after stirring for 24 hours: saturated; for Thermodynamic solubility: saturated (target 10 mg/mL), time point 2 hrs, pH 6.4 to 6.5
# Protocol: As the solid was completely dissolved, add more sample to keep it saturated. […] Then at the time point 2 hrs, 0.5 mL of sample solution was transferred into 1.5 mL centrifugation tube and centrifuged at 12,000 RPM for 10 min. The supernatant was diluted by 50% ACN suitable and analyzed by HPLC. The pH was tested after 24 hours.
# in vivo [3] = details: rat
# Protocol: as §1
# A total of 27 male SD rats were used (n=3). 27 male SD rats assigned to the study were divided into 9 groups and a single type of formulated PP-001 salt was orally administered to each group of rats at dose level of 4 mg/kg (2 mL/kg dose volume). The diet was provided ad libitum throughout the in-life portion of the study, except for the fasting prior to dosing through 4 hours post dose. Drinking water was available daily ad libitum to all animals.
# as §2, with “1” for “10”
# as §3, §4, §5
# [4] = Kinetic solubility of PP-001 salts in FaSSIF (HPLC); assay type: physicochemical; details: for Appearance after stirring for 24 hours / Solubility at different time points, 0.5 h / Solubility at different time points, 1 h / Solubility at different time points, 2 h / Solubility at different time points, 24 h / Solubility at different time points, Initial / Final pH: 4 mL FaSSIF, 25° C., target 2 mg/mL
# Protocol: Approximately 8 mg (calculated as freebase) of each salt was weighed out into each glass vial and then 4 ml of FaSSIF was added (target concentration was 2 mg/mL). The sample was kept stirring on a magnetic stirrer at a speed of I 00 RPM under 25° C. Then at the time points of initial, 0.5 hr, 1 hr, 2 hrs and 24 hrs, 0.5 mL of sample solution was transferred into 1.5 mL centrifugation tube and centrifuged at 12,000 RPM for 10 min. The supernatant was diluted by 50% ACN suitable and analyzed by HPLC.
# An HPLC method of testing solubility was performed as follows in Table A: […]
Compound,Increase in oral BA vs free acid in dogs (in vivo [1]),AUC0-∞ (in vivo [1]; po) [µg·h/mL],Appearance after stirring for 24 hours [2],Thermodynamic solubility [2] [mg/mL],"Increase in oral BA vs free acid in rats (in vivo [3]; in vivo, po)","AUC0-∞ (in vivo [3]; in vivo, po, 4 mg/kg) [ng·h/mL]","AUCExtr (in vivo [3]; in vivo, po, 4 mg/kg) [%]","AUCinf/D (in vivo [3]; in vivo, po, 4 mg/kg) [kg·ng·h/mL/mg]","AUClast (in vivo [3]; in vivo, po, 4 mg/kg) [ng·h/mL]","Cmax (in vivo [3]; in vivo, po, 4 mg/kg) [ng/mL]","F, bioavailability (BA) in rats (in vivo [3]; in vivo, po, 4 mg/kg) [%]","MRT0-∞ (in vivo [3]; in vivo, po, 4 mg/kg) [h]","Tmax (in vivo [3]; in vivo, po, 4 mg/kg) [h]","T1/2 (in vivo [3]; in vivo, po, 4 mg/kg, pH 6.8) [h]",Appearance after stirring for 24 hours [4],"Solubility at different time points, 0.5 h [4] [mg/mL]","Solubility at different time points, 1 h [4] [mg/mL]","Solubility at different time points, 2 h [4] [mg/mL]","Solubility at different time points, 24 h [4] [mg/mL]","Solubility at different time points, Initial [4] [mg/mL]",further results
Sodium,2.6,116.66,Suspension,1.85,2.4,32873,0.743,8218,32626,6147,18.8,4.76,2.33,3.34,clear solution,1.60,1.73,1.79,2.01,0.41,"AUCExtr (in vivo [1]; po): 2.16%; AUCinf/D (in vivo [1]; po): 29165 kg·ng·h/mL/mg; AUClast (in vivo [1]; po): 114.152 µg·h/mL; Cmax (in vivo [1]; po): 16867 ng/mL; F, bioavailability (BA) in dogs (in vivo [1]; po): 59.6%; MRT0-∞ (in vivo [1]; po): 5.28 h; T1/2 (in vivo [1]; po): 4.24 h; Tmax (in vivo [1]; po): 3.00 h; Final pH [2]: 6.49"
CNC[C@H](O)[C@@H](O)[C@H](O)[C@H](O)CO [Meglumine],–,–,–,5.69,1.3,17083,0.488,4271,16995,2217,–,4.83,3.00,3.02,–,2.01,1.98,2.00,1.96,1.32,–
Tromethamine,2.4,106.528,Suspension,3.70,1.6,21874,0.930,5469,21665,2787,12.5,5.38,4.00,3.39,clear solution,1.99,1.95,1.96,2.02,1.72,"AUCExtr (in vivo [1]; po): 2.03%; AUCinf/D (in vivo [1]; po): 26632 kg·ng·h/mL/mg; AUClast (in vivo [1]; po): 104.381 µg·h/mL; Cmax (in vivo [1]; po): 20467 ng/mL; F, bioavailability (BA) in dogs (in vivo [1]; po): 54.4%; MRT0-∞ (in vivo [1]; po): 5.38 h; T1/2 (in vivo [1]; po): 4.13 h; Tmax (in vivo [1]; po): 2.67 h; Final pH [2]: 6.44; Thermodynamic solubility ([2]; listed as Tromethamine cation): 3.7 mg/mL; Final pH [4]: 6.51"
[Ca] [Calcium],3.0,133.409,–,–,2.0,27157,1.03,6789,26827,3280,15.6,5.55,4.00,3.40,suspension,0.75,0.74,0.71,–,0.34,"Increase in bioavailability in dogs (in vivo [1]; po): > 3 fold; AUCExtr (in vivo [1]; po): 1.16%; AUCinf/D (in vivo [1]; po): 33352 kg·ng·h/mL/mg; AUClast (in vivo [1]; po): 131.819 µg·h/mL; Cmax (in vivo [1]; po): 22467 ng/mL; F, bioavailability (BA) in dogs (in vivo [1]; po): 68.1%; MRT0-∞ (in vivo [1]; po): 4.38 h; T1/2 (in vivo [1]; po): 3.76 h; Tmax (in vivo [1]; po): 1.67 h; Final pH [4]: 6.51; Solubility at different time points, 24 h ([4]; listed as Ca): 0.70 mg/mL; Solubility at different time points, 24 h ([4]; listed as Ca cation): 0.7 mg/mL; Solubility compared to PP-001 free acid ([4]; FaSSIF, comparison from Table 6): reduced solubility compared to PP-001 free acid"
Zinc,–,–,–,–,1.3,17122,0.471,4281,17033,2490,9.82,5.33,4.00,2.89,–,–,–,–,–,–,–
NCCCC[C@H](N)C(=O)O [Lysine],–,–,Suspension,4.65,–,–,–,–,–,–,–,–,–,–,–,2.04,2.06,2.02,2.09,1.37,"AUC0-∞ (in vivo [3]; PO 4 mg/kg, mean n=3): 18430 ng·h/mL; AUCExtr (in vivo [3]; PO 4 mg/kg, mean n=3): 0.388%; AUCinf/D (in vivo [3]; PO 4 mg/kg, mean n=3): 4607 kg·ng·h/mL/mg; AUClast (in vivo [3]; PO 4 mg/kg, mean n=3): 18361 ng·h/mL; Cmax (in vivo [3]; PO 4 mg/kg, mean n=3): 2663 ng/mL; F, bioavailability (BA) in rats (in vivo [3]; PO 4 mg/kg, mean n=3): 10.6%; MRT0-∞ (in vivo [3]; PO 4 mg/kg, mean n=3): 4.97 h; Tmax (in vivo [3]; PO 4 mg/kg, mean n=3): 4.00 h; T1/2 (in vivo [3]; PO 4 mg/kg, suspension in pH 6.8 phosphate buffer, mean n=3): 2.85 h; Increase in oral BA vs free acid in rats (in vivo [3]; oral, ratio to PP-001 free acid): 1.4"
[Mg] [Magnesium],–,–,–,–,1.7,23029,0.510,5757,22909,3163,13.2,4.87,3.33,3.01,suspension,1.52,1.51,1.44,–,0.33,"Solubility at different time points, 24 h ([4]; listed as Mg): 1.01 mg/mL; Solubility at different time points, 24 h ([4]; listed as Mg cation): 1.01 mg/mL"
Benzathine,–,–,Suspension,0.03,0.7,9593,0.298,2398,9559,1495,5.5,4.81,3.33,2.70,–,–,–,–,–,–,Final pH [2]: 6.43
